In PubChem BioAssay (NCI) one finds GI50 and TGI data, which are given here for 12 molecules.

Some test systems named below: 786-0 renal; OVCAR-3 ovarian; SR leukemia; PC-3 prostate; A549 NSCLC; CAKI-1 renal; SN12C renal; HOP-92 NSCLC; MDA-MB-435; SF-268 CNS.
What all share (assay): DTP human tumour cell line panel, 48 h

“And” between values parts separate entries of the source, which are not always exact repeats. Equal entries are not always repeated.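 Dose response: 5 concentrations. Exposure: 48 h. Format: 96-well plates. Endpoint: linear interpolation; highest concentration if not reached. GI50 is the concentration that inhibits growth by half. TGI denotes the concentration required for complete inhibition of growth.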

With `C[C@]12CC[C@H]3[C@@H](CC=C4C[C@@H](O)CC[C@@]43C)[C@@H]1C/C(=C\c1cccc(OCCCn3ccnc3)c1)[C@@H]2O`, the GI50 was 10.5 µM with 786-0 renal; 6.67 µM with SR leukemia; 9.48 µM in the test with PC-3 prostate; 12.9 µM in the test on A549 NSCLC; 13.8 µM in the test with CAKI-1 renal; 15.8 µM in the test on SN12C renal. Further, the GI50 in the test on HOP-92 NSCLC is 8.4 µM; in the test with MDA-MB-435 it was 9.99 µM; in the test with SF-268 CNS, 16.8 µM. In addition, the TGI in the test on 786-0 renal turned out to be 35 µM; with OVCAR-3 ovarian, 29.9 µM; with SR leukemia, 47.7 µM; in the test with PC-3 prostate, 56.6 µM; in the test with A549 NSCLC it was 28.5 µM; with CAKI-1 renal, 34.5 µM. In addition, the TGI in the test on SN12C renal is 38 µM; in the test with HOP-92 NSCLC, 25.7 µM; with MDA-MB-435, 42.6 µM; with SF-268 CNS, 37.5 µM.
Regarding `OCC1OC(O)C(N=Cc2ccc3c(c2)OCO3)C(O)C1O` (centres undefined), the concentration for total growth inhibition (TGI) with 786-0 renal, in the test with OVCAR-3 ovarian, in the test on SR leukemia, with PC-3 prostate, in the test with A549 NSCLC and with CAKI-1 renal was over 100 µM in each case. Besides, the TGI in the test on SN12C renal, in the test on HOP-92 NSCLC, with MDA-MB-435 and in the test with SF-268 CNS was over 100 µM throughout.
For the molecule `CNC(=O)c1ccc(Nc2nc(OC3CCCC3)c3c(-c4ccc5nc(C)oc5c4)c[nH]c3n2)c(OC)c1`, the GI50 was over 43.4 µM in the test with 786-0 renal; 0.427 µM in the test with OVCAR-3 ovarian; 0.0861 µM with SR leukemia; 3.57 µM in the test on PC-3 prostate; 0.201 µM in the test with A549 NSCLC; 0.448 µM in the test on CAKI-1 renal. The GI50 in the test on SN12C renal is 1.32 µM; in the test with HOP-92 NSCLC it was 2.54 µM; in the test on MDA-MB-435 it was over 100 µM; in the test on SF-268 CNS, over 47.2 µM. Besides, the TGI with 786-0 renal is over 100 µM; with OVCAR-3 ovarian, over 44.6 µM; in the test on SR leukemia, over 100 µM; in the test with PC-3 prostate, over 100 µM; with A549 NSCLC it was over 100 µM; with CAKI-1 renal it was over 100 µM. The total growth inhibition concentration (TGI) in the test with SN12C renal, with HOP-92 NSCLC, in the test with MDA-MB-435 and in the test on SF-268 CNS was over 100 µM throughout.
Regarding `CC1=Cc2cc3[n-]c(cc4nc(cc5[n-]c(cc1n2)c(C)c5CCC(=O)O)C(CCC(=O)O)=C4C)cc3C.[Cu+2]`, the GI50 in the test with 786-0 renal is > 1 µM and 21.1 µM; in the test on OVCAR-3 ovarian, > 1 µM and 26.5 µM; with SR leukemia it was > 1 µM and 45.1 µM; in the test with PC-3 prostate it was 12.9 µM; in the test on A549 NSCLC, > 1 µM and 70.9 µM; in the test on CAKI-1 renal it was > 1 µM and 23.2 µM. Further, the GI50 in the test with SN12C renal is > 1 µM and 57.7 µM; with HOP-92 NSCLC it was > 1 µM and 13.6 µM; in the test with MDA-MB-435, 55.1 µM; in the test on SF-268 CNS, 10.8 µM and > 1 µM. The TGI with 786-0 renal is > 1 µM and 54.5 µM; in the test on OVCAR-3 ovarian it was > 1 µM and 92.3 µM; with SR leukemia it was over 75.7 µM; in the test on PC-3 prostate it was 29.5 µM; in the test on A549 NSCLC it was over 100 µM; with CAKI-1 renal, over 68.2 µM. Besides, the TGI in the test with SN12C renal was over 100 µM; in the test with HOP-92 NSCLC, > 1 µM and 34.3 µM; in the test on MDA-MB-435, over 100 µM; with SF-268 CNS it was 36.1 µM and > 1 µM.
For the molecule `COc1ccc(/C(Cl)=C(\C=O)c2cc(OC)c(OC)c(OC)c2)cc1OC`, the concentration for total growth inhibition (TGI) with 786-0 renal, with OVCAR-3 ovarian, with SR leukemia, in the test on PC-3 prostate, in the test on A549 NSCLC and in the test on CAKI-1 renal was over 100 µM each time. In addition, the TGI in the test with SN12C renal, in the test on HOP-92 NSCLC, in the test on MDA-MB-435 and in the test on SF-268 CNS was over 100 µM in each case.
With `CCOC(=O)c1ccc2[nH]c(Cc3[nH]c4ccc(C(=O)OCC)cc4c3C)c(C)c2c1`, the GI50 in the test on 786-0 renal was 4.51 µM; in the test with OVCAR-3 ovarian, 3.06 µM; in the test with SR leukemia, 0.425 µM; with PC-3 prostate, 1.46 µM; with A549 NSCLC, 1.05 µM; with CAKI-1 renal, 1.55 µM. Further, the GI50 in the test with SN12C renal is 4.92 µM; in the test with HOP-92 NSCLC, 1.95 µM; with MDA-MB-435 it was 3.53 µM; in the test with SF-268 CNS, 1.41 µM. For the same molecule, the TGI in the test on 786-0 renal was determined as 31.4 µM; with OVCAR-3 ovarian, 17.6 µM; in the test with SR leukemia, 15.1 µM; in the test with PC-3 prostate, 13.7 µM; in the test with A549 NSCLC, 5.87 µM; with CAKI-1 renal it was 22.9 µM. Moreover, the TGI in the test on SN12C renal amounted to 24.7 µM; in the test with HOP-92 NSCLC, 8.99 µM; with MDA-MB-435 it was 48.8 µM; in the test on SF-268 CNS it was 15.4 µM.
As to `COc1cc(/C=C/C(=O)CC(=O)/C=C/c2ccc(OC(=O)CCNC34CC5CC(CC(C5)C3)C4)c(OC)c2)ccc1OC(=O)CCNC12CC3CC(CC(C3)C1)C2`, the GI50 in the test on 786-0 renal is 3.2 µM; in the test on OVCAR-3 ovarian, 4.09 µM; in the test with SR leukemia, 2.37 µM; in the test with PC-3 prostate, 4.13 µM; with A549 NSCLC, 10.3 µM; in the test on CAKI-1 renal, 2.51 µM. Besides, the GI50 with SN12C renal is 3.32 µM; with HOP-92 NSCLC it was 2.64 µM; in the test with MDA-MB-435, 2.08 µM; with SF-268 CNS, 3.01 µM. Further, the TGI with 786-0 renal worked out at 21.3 µM; with OVCAR-3 ovarian, 21.9 µM; in the test on SR leukemia, 8.84 µM; in the test on PC-3 prostate it was 21.1 µM; with A549 NSCLC it was 28.5 µM; in the test on CAKI-1 renal, 9.33 µM. Moreover, the concentration for total growth inhibition (TGI) in the test with SN12C renal came out at 17.8 µM; in the test on HOP-92 NSCLC, 17.6 µM; in the test on MDA-MB-435 it was 6.53 µM; in the test on SF-268 CNS, 13.2 µM.
Turning to `O=C1NC(=O)[C@H]2C3C=CC([C@@H]12)[C@@H]1C(=O)NC(=O)[C@H]31`, the TGI in the test with 786-0 renal, in the test with OVCAR-3 ovarian, in the test on SR leukemia, in the test on PC-3 prostate, in the test with A549 NSCLC and in the test with CAKI-1 renal was over 100 µM each time. In addition, the TGI with SN12C renal, in the test on HOP-92 NSCLC, in the test on MDA-MB-435 and in the test with SF-268 CNS was over 100 µM throughout.
Take `O=C(Nc1cccc(-c2nc3ccccc3[nH]2)c1)c1cccc(NC(=O)c2ccco2)c1`: the GI50 was 1.65 µM with 786-0 renal; 1.97 µM in the test on OVCAR-3 ovarian; 2.33 µM in the test on SR leukemia; 2.25 µM with PC-3 prostate; 1.88 µM in the test on A549 NSCLC; 2.53 µM with CAKI-1 renal. Also, the GI50 in the test with SN12C renal is 2.07 µM; in the test with HOP-92 NSCLC, 2.63 µM; in the test with MDA-MB-435, 1.67 µM; with SF-268 CNS, 1.99 µM. The concentration for total growth inhibition (TGI) with 786-0 renal came to 3.05 µM; in the test on OVCAR-3 ovarian, 3.39 µM; in the test with SR leukemia, 6.53 µM; in the test on PC-3 prostate it was 5.48 µM; in the test on A549 NSCLC, 3.95 µM; in the test with CAKI-1 renal it was 7.21 µM. For the same molecule, the TGI in the test with SN12C renal is 4.88 µM; in the test with HOP-92 NSCLC it was 5.89 µM; in the test on MDA-MB-435, 3.04 µM; in the test with SF-268 CNS, 3.78 µM.
For `COc1cc(/C=C2\C[C@H]3[C@@H]4CC=C5C[C@@H](OC(C)=O)CC[C@]5(C)[C@H]4CC[C@]3(C)[C@H]2OC(C)=O)ccc1OCCCn1ccnc1`, the GI50 in the test on 786-0 renal is 6.06 µM; in the test on OVCAR-3 ovarian, 12.3 µM; with SR leukemia it was 8.2 µM; with PC-3 prostate it was 11.5 µM; in the test with A549 NSCLC, 8.45 µM; in the test with CAKI-1 renal it was 7.05 µM. The GI50 is 8.84 µM in the test on SN12C renal, 9.45 µM in the test on HOP-92 NSCLC, 10.2 µM in the test on MDA-MB-435 and 9.63 µM with SF-268 CNS. For the same molecule, the total growth inhibition concentration (TGI) in the test on 786-0 renal was found to be 13.4 µM; in the test with OVCAR-3 ovarian it was 26.2 µM; in the test with SR leukemia, 36.3 µM; with PC-3 prostate it was 29.1 µM; with A549 NSCLC, 20.4 µM; with CAKI-1 renal, 15.8 µM. Moreover, the concentration for total growth inhibition (TGI) with SN12C renal turned out to be 21.9 µM; in the test on HOP-92 NSCLC it was 20 µM; with MDA-MB-435, 22.1 µM; in the test on SF-268 CNS, 21.6 µM.
In the case of `O=C(/C=C/c1ccc2c(c1)OCO2)c1ccccc1`, the GI50 with 786-0 renal was 14.8 µM; with OVCAR-3 ovarian it was 4.71 µM; in the test on SR leukemia, 2.56 µM; with PC-3 prostate, 22.5 µM; in the test with A549 NSCLC it was 18.7 µM; with CAKI-1 renal, 6.9 µM. Also, the GI50 in the test on SN12C renal is 18.6 µM; in the test with HOP-92 NSCLC it was 15.4 µM; in the test with MDA-MB-435 it was 3.58 µM; in the test on SF-268 CNS, 15 µM. Besides, the TGI in the test on 786-0 renal was 31 µM; with OVCAR-3 ovarian, 17.9 µM; in the test on SR leukemia it was 13.9 µM; with PC-3 prostate it was 58.4 µM; in the test on A549 NSCLC it was 49 µM; in the test with CAKI-1 renal, 23 µM. Besides, the TGI in the test with SN12C renal was determined as 40.6 µM; in the test on HOP-92 NSCLC, 41.3 µM; with MDA-MB-435, 19.3 µM; in the test with SF-268 CNS, 35.6 µM.
`C=C1C(=O)O[C@H]2[C@H]1CC/C(Cn1cc(Cn3ccc4cc(Cl)ccc43)nn1)=C\CC[C@@]1(C)O[C@@H]21`: the GI50 was 1.81 µM in the test on 786-0 renal; 1.48 µM in the test on OVCAR-3 ovarian; 0.279 µM in the test on SR leukemia; 1.3 µM in the test with PC-3 prostate; 10.2 µM with A549 NSCLC; 1.24 µM in the test with CAKI-1 renal. The GI50 with SN12C renal is 1.5 µM; in the test with HOP-92 NSCLC, 0.489 µM; in the test on MDA-MB-435 it was 1.56 µM; with SF-268 CNS, 1.65 µM. The TGI stood at 3.57 µM in the test on 786-0 renal; 2.83 µM with OVCAR-3 ovarian; 1.25 µM with SR leukemia; 2.87 µM in the test with PC-3 prostate; 24.8 µM in the test on A549 NSCLC; 2.5 µM with CAKI-1 renal. The total growth inhibition concentration (TGI) is 3.2 µM in the test with SN12C renal, 1.74 µM in the test on HOP-92 NSCLC, 2.98 µM in the test with MDA-MB-435 and 3.13 µM in the test with SF-268 CNS.
